Test results reported in PubChem BioAssay (NCI).
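How tested: cells in 96-well plates exposed to compound for 48 hours at five concentrations. TGI marks complete inhibition of growth.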

Columns and labels:
Assay in all cases: growth of human tumour cells (NCI), 48 h
786-0 renal = tested on: 786-0 renal
A498 renal = tested on: A498 renal
A549 NSCLC = tested on: A549 NSCLC
ACHN renal = tested on: ACHN renal
BT-549 breast = tested on: BT-549 breast
CAKI-1 renal = tested on: CAKI-1 renal
CCRF-CEM leukemia = tested on: CCRF-CEM leukemia
COLO 205 colon = tested on: COLO 205 colon
DU-145 prostate = tested on: DU-145 prostate
EKVX NSCLC = tested on: EKVX NSCLC
HCC-2998 colon = tested on: HCC-2998 colon
HCT-116 colon = tested on: HCT-116 colon
HL-60(TB) leukemia = tested on: HL-60(TB) leukemia
HOP-62 NSCLC = tested on: HOP-62 NSCLC
HS 578T breast = tested on: HS 578T breast
HT29 colon = tested on: HT29 colon
IGROV1 ovarian = tested on: IGROV1 ovarian
K-562 leukemia = tested on: K-562 leukemia
KM12 colon = tested on: KM12 colon
LOX IMVI melanoma = tested on: LOX IMVI melanoma
M14 melanoma = tested on: M14 melanoma
MALME-3M melanoma = tested on: MALME-3M melanoma
MCF7 breast = tested on: MCF7 breast
MDA-MB-231 breast = tested on: MDA-MB-231 breast
MDA-MB-435 = tested on: MDA-MB-435
MDA-N = tested on: MDA-N
NCI-H23 lung = tested on: NCI-H23 lung
NCI-H460 lung = tested on: NCI-H460 lung
NCI-H522 lung = tested on: NCI-H522 lung
NCI/ADR-RES ovarian = tested on: NCI/ADR-RES ovarian
OVCAR-3 ovarian = tested on: OVCAR-3 ovarian
OVCAR-4 ovarian = tested on: OVCAR-4 ovarian
OVCAR-5 ovarian = tested on: OVCAR-5 ovarian
OVCAR-8 ovarian = tested on: OVCAR-8 ovarian
PC-3 prostate = tested on: PC-3 prostate
RPMI-8226 leukemia = tested on: RPMI-8226 leukemia
RXF 393 renal = tested on: RXF 393 renal
SF-268 CNS = tested on: SF-268 CNS
SF-295 CNS = tested on: SF-295 CNS
SF-539 CNS = tested on: SF-539 CNS
SK-MEL-2 melanoma = tested on: SK-MEL-2 melanoma
SK-MEL-28 melanoma = tested on: SK-MEL-28 melanoma
SK-MEL-5 melanoma = tested on: SK-MEL-5 melanoma
SK-OV-3 ovarian = tested on: SK-OV-3 ovarian
SN12C renal = tested on: SN12C renal
SNB-19 CNS = tested on: SNB-19 CNS
SNB-75 CNS = tested on: SNB-75 CNS
SR leukemia = tested on: SR leukemia
SW-620 colon = tested on: SW-620 colon
T-47D breast = tested on: T-47D breast
TK-10 renal = tested on: TK-10 renal
U251 CNS = tested on: U251 CNS
UACC-257 melanoma = tested on: UACC-257 melanoma
UACC-62 melanoma = tested on: UACC-62 melanoma
UO-31 renal = tested on: UO-31 renal
HCT-15 colon = tested on: HCT-15 colon
MOLT-4 leukemia = tested on: MOLT-4 leukemia
NCI-H226 lung = tested on: NCI-H226 lung

SMILES: CCOC(=O)Cc1c(C(=O)OCC)[n+](=O)c2cc(Cl)c(Cl)cc2n1[O-]
- TGI (786-0 renal): 3.84 µM
- TGI (A498 renal): 6.14 µM
- TGI (A549 NSCLC): 3.72 µM
- TGI (ACHN renal): 3.38 µM
- TGI (BT-549 breast): 6.53 µM
- TGI (CAKI-1 renal): 11.1 µM
- TGI (CCRF-CEM leukemia): 6.29 µM
- TGI (COLO 205 colon): 3.27 µM
- TGI (DU-145 prostate): 3.68 µM
- TGI (EKVX NSCLC): 11.4 µM
- TGI (HCC-2998 colon): 5.1 µM
- TGI (HCT-116 colon): 7.27 µM
- TGI (HL-60(TB) leukemia): 5.74 µM
- TGI (HOP-62 NSCLC): 4.27 µM
- TGI (HS 578T breast): 6.46 µM
- TGI (HT29 colon): 5.2 µM
- TGI (IGROV1 ovarian): 2.35 µM
- TGI (K-562 leukemia): 5.65 µM
- TGI (KM12 colon): 2.95 µM
- TGI (LOX IMVI melanoma): 4.65 µM
- TGI (M14 melanoma): 5.98 µM
- TGI (MALME-3M melanoma): 3.21 µM
- TGI (MCF7 breast): 13.3 µM
- TGI (MDA-MB-231 breast): 7.02 µM
- TGI (MDA-MB-435): 9.03 µM
- TGI (MDA-N): 11.9 µM
- TGI (NCI-H23 lung): 5.49 µM
- TGI (NCI-H460 lung): 3.46 µM
- TGI (NCI-H522 lung): 3.63 µM
- TGI (NCI/ADR-RES ovarian): 8.61 µM
- TGI (OVCAR-3 ovarian): 5.04 µM
- TGI (OVCAR-4 ovarian): 3.51 µM
- TGI (OVCAR-5 ovarian): 5.24 µM
- TGI (OVCAR-8 ovarian): 6.2 µM
- TGI (PC-3 prostate): 4.69 µM
- TGI (RPMI-8226 leukemia): 2.18 µM
- TGI (RXF 393 renal): 4.91 µM
- TGI (SF-268 CNS): 7.87 µM
- TGI (SF-295 CNS): 13.5 µM
- TGI (SF-539 CNS): 5.44 µM
- TGI (SK-MEL-2 melanoma): 7.73 µM
- TGI (SK-MEL-28 melanoma): 17.4 µM
- TGI (SK-MEL-5 melanoma): 3.04 µM
- TGI (SK-OV-3 ovarian): 11.9 µM
- TGI (SN12C renal): 6.95 µM
- TGI (SNB-19 CNS): 11.9 µM
- TGI (SNB-75 CNS): 4.63 µM
- TGI (SR leukemia): 2.11 µM
- TGI (SW-620 colon): 4.08 µM
- TGI (T-47D breast): 6.76 µM
- TGI (TK-10 renal): 2.83 µM
- TGI (U251 CNS): 9.67 µM
- TGI (UACC-257 melanoma): 5.51 µM
- TGI (UACC-62 melanoma): 5.45 µM
- TGI (UO-31 renal): 3.36 µM

SMILES: NC(Cc1ccccc1)C(=O)OCN1C(=O)C2C3C=CC(C2C1=O)C1C(=O)N(COC(=O)C(N)Cc2ccccc2)C(=O)C31 (stereo not drawn)
- TGI (786-0 renal): > 100 µM
- TGI (A549 NSCLC): > 100 µM
- TGI (ACHN renal): > 100 µM
- TGI (BT-549 breast): > 100 µM
- TGI (CAKI-1 renal): > 100 µM
- TGI (CCRF-CEM leukemia): 49.7 µM
- TGI (COLO 205 colon): > 100 µM
- TGI (DU-145 prostate): > 100 µM
- TGI (EKVX NSCLC): > 100 µM
- TGI (HCC-2998 colon): > 100 µM
- TGI (HCT-116 colon): > 100 µM
- TGI (HCT-15 colon): 78.4 µM
- TGI (HL-60(TB) leukemia): 37.8 µM
- TGI (HOP-62 NSCLC): > 100 µM
- TGI (HS 578T breast): > 100 µM
- TGI (HT29 colon): 39.7 µM
- TGI (IGROV1 ovarian): > 100 µM
- TGI (K-562 leukemia): 74.6 µM
- TGI (LOX IMVI melanoma): 42.2 µM
- TGI (M14 melanoma): > 100 µM
- TGI (MALME-3M melanoma): > 100 µM
- TGI (MCF7 breast): 39.2 µM
- TGI (MDA-MB-231 breast): > 100 µM
- TGI (MDA-MB-435): > 100 µM
- TGI (MDA-N): > 100 µM
- TGI (MOLT-4 leukemia): 51.3 µM
- TGI (NCI-H226 lung): > 100 µM
- TGI (NCI-H23 lung): > 100 µM
- TGI (NCI-H460 lung): > 100 µM
- TGI (NCI-H522 lung): > 100 µM
- TGI (NCI/ADR-RES ovarian): > 100 µM
- TGI (OVCAR-3 ovarian): > 100 µM
- TGI (OVCAR-5 ovarian): > 100 µM
- TGI (OVCAR-8 ovarian): > 100 µM
- TGI (PC-3 prostate): > 100 µM
- TGI (RPMI-8226 leukemia): 48 µM
- TGI (RXF 393 renal): > 100 µM
- TGI (SF-268 CNS): > 100 µM
- TGI (SF-295 CNS): > 100 µM
- TGI (SF-539 CNS): > 100 µM
- TGI (SK-MEL-2 melanoma): 52 µM
- TGI (SK-MEL-28 melanoma): > 100 µM
- TGI (SK-MEL-5 melanoma): > 100 µM
- TGI (SN12C renal): > 100 µM
- TGI (SNB-19 CNS): > 100 µM
- TGI (SR leukemia): 53.4 µM
- TGI (SW-620 colon): 77.3 µM
- TGI (T-47D breast): > 100 µM
- TGI (TK-10 renal): > 100 µM
- TGI (U251 CNS): > 100 µM
- TGI (UACC-257 melanoma): > 100 µM
- TGI (UACC-62 melanoma): > 100 µM
- TGI (UO-31 renal): > 100 µM
